Columns and labels:
[1] = system: Human umbilical vein endothelial cells (HUVEC); experiment: OGD-R injury model, LDH detection, HUVEC; format: cell-based; conditions: OGD 4 hours, restoration 24 hours, 1, 3, 10 μM, prophylactic (1 hour before OGD) or therapeutic (at restoration)
Experimental: HUVEC cells were cultured in modified DMEM medium containing 10% fetal bovine serum. When the cells reached about 80% confluence, the cells were digested with 0.25% trypsin, and then pipetted evenly with modified DMEM containing 10% fetal bovine serum. The cell concentration was adjusted to 1×10^5 cells/mL, and the cells were seeded at 400 uL/well in a 24-well plate, and the experiment was carried out when the cells grew to about 70% confluence. RAOEC cells were cultured in high-glucose DMEM medium containing 10% fetal bovine serum, and the seeding conditions were the same as those for HUVECs.
The hypoxia workstation was set to have an oxygen concentration of 1% (1% O2, 5% CO2, 94% N2), a temperature of 37° C., and a humidity of 85%. A sugar-free DMEM medium was placed in the hypoxia workstation for pre-hypoxia for 3 hours. The medium in the culture plate was aspirated, and the plate was washed twice with preheated sugar-free DMEM medium, and 100 uL of sugar-free DMEM medium was added to each well. […]
At the end of the experiment, 50 uL of medium was taken from each well into a 96-well plate, and then cytotoxicity was detected according to the operating instructions of the LDH detection kit. The results were calculated as follows: […]

[2] = system: acute hypobaric hypoxia-induced lung injury; experiment: Acute hypobaric hypoxia-induced lung injury in Macaca fascicularis (HE pathology); format: in vivo; conditions: 7500 meters for 48 hours
Experimental: Twenty-four healthy male Macaca fascicularis, 6 to 6.5 years-old, weighted 6.5-7.5 kg, were purchased from Kangda Laboratory Animal Center, Gaoyao City, Guangdong, China, in which 17 male Macaca fascicularis were divided into 3 groups, as shown in the following table:
Three Macaca fascicularis housed in the animal room were randomly selected each time. For each animal, 10 ml of blood was collected, and 10 ml of glucose normal saline was injected intravenously, and marked. The animals were then housed in a low-pressure chamber for 1 day to acclimate to the experimental environment. In the acute hypobaric hypoxia group, the altitude was simulated to 3000 meters at a speed of 3 m/s; after the animals stayed in the low-pressure chamber at a simulated altitude of 3000 meters for 30 minutes, 10 ml of blood was taken from each animal and 10 ml of glucose saline was injected intravenously; the altitude was then simulated to 4500 meters at a speed of 3 m/s; after the animals stayed in the low-pressure chamber at a simulated altitude of 4500 meters for 30 minutes, 10 ml of blood was taken from each animal and 10 ml of glucose saline was injected intravenously; the altitude was simulated to 6000 meters at a speed of 3 m/s; after the animals stayed in the low-pressure chamber at a simulated altitude of 6000 meters for 30 minutes, 10 ml of blood was taken from each animal and 10 ml of glucose saline was injected intravenously; the altitude was simulated to 7500 meters at a speed of 2 m/s; after the animals stayed at a simulated altitude of 7500 meters in the low-pressure chamber for 24 hours, the altitude was lowered to 6000 meters at a speed of 3 m/s, and 10 ml of blood was taken from each animal and 10 ml of glucose saline was injected intravenously; the altitude was simulated to 7500 meters at a speed of 2 m/s; after staying at 7500 meters for 48 hours, the altitude was lowered to 6000 meters at a speed of 3 m/s, the animals were anesthetized (0.06 ml/kg ketamine hydrochloride injection, 0.02 ml/kg xylazine hydrochloride injection), and sacrificed by carotid bloodletting, and dissected and subject to sampling, and the samples were then fixed. The Macaca fascicularis in the normobaric normoxia control group were anesthetized (0.06 ml/kg ketamine hydrochloride injection, 0.02 ml/kg xylazine hydrochloride injection) in the plain (an altitude of 352 meters), then sacrificed by carotid bloodletting, and dissected and subject to sampling, and the samples were then fixed. […]

C[C@@]12CCCC1C1C[C@@H](O)[C@]3(O)C[C@@H](O)CC[C@]3(C)C1CC2 (stereo partly drawn) [YC-6, 5α-androst-3β,5,6β-triol]
OGD-R-induced increase in LDH release [1]: significantly reduced the OGD-R-induced increase in LDH release in a dose-dependent manner
alveolar septal thickening caused by acute hypobaric hypoxia ([2]; 100 mg/kg/two days (i.v. solution and i.m. sustained-release formulation)): significantly reduced the alveolar septal thickening injury
fibrous hyperplasia of alveolar septa, protein hyaline membrane formation and erythrocyte leakage into the alveolar space ([2]; 100 mg/kg/two days): no such obvious changes were observed
inflammatory infiltration and shedding of damaged lung epithelial cells ([2]; 100 mg/kg/two days): no obvious inflammatory infiltration and shedding of damaged lung epithelial cells were observed
pulmonary vascular congestion and swelling ([2]; 100 mg/kg/two days): significantly inhibited pulmonary vascular congestion and swelling
